In patent US20150202219A1, “NEUROPROTECTION FROM BRAIN ANOXIA AND REPERFUSION INJURY DURING STROKE AND COMPOSITIONS OF PKG PATHWAY ACTIVATORS AND METHOD OF USE THEREOF” (Florida Atlantic University, priority 2010, published 2015):

Legend:
protein phosphatase = settings: cited from earlier work
[1] = system: adult Drosophila melanogaster; assay: Time to anoxic coma onset (locomotion failure) during acute hypoxia after volatilized drug treatment; format: in vivo; settings: adult sitter flies; single agent volatilized from 10 uL DMSO for 1 hr; 1 mM KT5823, 1 mM Cantharidin, 200 mM DCA, 10 mM 8-Bromo cGMP, 10 mM T-0156; argon displacement; Dunn's p<0.05
Procedure: Using both genetics and pharmacology, the roles and order of function of additional cGMP-dependent signaling molecules in modulating acute low-oxygen sensitivity of locomotory failure were examined. To do this, we imposed acute hypoxia (<0.2% O2 within 5 min) by displacing environmental oxygen with the inert gas argon and then measured time to failure of locomotion (anoxic coma), which can be observed in less than 2% atmospheric oxygen (Haddad, 2000). We also used a novel but reliable method of pharmacological volatilization as a means to manipulate, in vivo, the activity of target enzymes and molecules such as PKG. Flies were frozen immediately after each trial, and heads were dissected and examined for PKG activity, as an indicator for activity levels in the brain (Belay et al., 2007; Kaun et al., 2007b). Lastly, using adult flies we tested what has been previously shown in embryos and larva (Wingrove and O'Farrell, 1999), the effect of prolonged anoxia (6 hours) on animal survival, after a 24 hour recovery.
Ten flies (separated into males or females) from each of the three strains (rover [for^R], sitter [for^s] and for^s2) were selected and placed in three separate vials with food at least 24 hours before each experiment. At the time of the experiment, flies were emptied into 10 mL empty test vials covered with permeable sponge caps of equivalent thickness, allowing for consistent gas exchange. These test vials were then placed into a 600 mL beaker which was covered with parafilm, creating a closed chamber with an escape hole in the parafilm (1 cm diameter). The purpose of this hole is to allow the lighter normal air (compared to argon which is heavier) to escape from the top of the beaker. The parafilm top was punctured with a needle connected to a gas tank (by a plastic hose), through which the inert gas argon was expelled. Preliminary work was done with pure nitrogen, where no significant differences between the uses of the two gases were observed (data not shown).
The needle tip was fastened to the bottom of the beaker and inserted into a larger sponge of similar texture to the vial sponge caps to ensure that gas expelled from the needle was dispersed equally throughout the beaker. […]
The experiment required exposing the test vials with 10 flies in a vial within the container to pure argon gas expelled from the tank at a flow rate of 600 cc/min±5%. Time of behavioral failure was recorded by observing the fly undergo a seizure, which was quickly followed by an anoxic coma. […] The program recorded these times of failure for each individual fly within the vials and then computed an average failure time for each vial (each vial has 10 flies but gives an average value for N=1). […]

PKG = PKG enzyme activity assay on heads of treated flies; format: biochemical, Drosophila melanogaster; settings: heads of animals from FIG. 4a experiments; N=6 for each treatment; SNK
Procedure: PKG enzyme activity assays were conducted according to the procedure outlined in Kaun et al. (2007)(Kaun et al., 2007b). Adult Drosophila were decapitated and the heads were homogenized in 25 mM 1-1 Tris (pH 7.4), 1 mM 1-1 EDTA, 2 mM 1-1 EGTA, 5 mM 1-1 β-mercaptoethanol, 0.05% Triton X-100 and protease inhibitor solution (Roche Diagnostics). Following microcentrifugation for 5 min, the supernatant was removed and those supernatants containing equal amounts of total protein were examined for PKG enzyme activity. The reaction mixture contained the following substances: 40 mM 1-1 Tris-HCl (pH 7.4), 20 mM 1-1 magnesium acetate, 0.2 mM 1-1 [γ^32P]ATP (500-1000 c.p.m. pmol-1), 113 mg ml-1 heptapeptide (RKRSRAE), 3 mM 1-1 cGMP and a highly specific inhibitor of cAMP-dependent protein kinase. The next step of the procedure involved incubating the reaction mixtures at a temperature of 30° C. for 10 min, followed by ending the reaction by spotting 70 μl of the reaction mixture onto Whatman P-81 filters. To remove any unreacted [γ^32P]ATP, these spots were then soaked with 75 mM 1-1 H3PO4 for 5 min and washed three times with 75 mM 1-1 H3PO4. Before quantifying enzyme activity, filters were rinsed with 100% ethanol and air dried. To calculate PKG enzyme activity, counts were taken in a Wallac 1409 Liquid Scintillation Counter using universal scintillation cocktail (ICN). PKG activity was presented in the figures as pmol of ^32P incorporated into the substrate min-1 mg-1 protein.

NT-3 = settings: cited from earlier work
[2] = biological target: T1, phosphodiesterase-5 (PDE-5) (Mus musculus, UniProt Q8CG03); settings: mice; 1.4-mg/kg intraperitoneal injections daily for 8 days; cited from earlier work
T1 construct: Sildenafil (Viagra) was administered to mice, 1.4-mg/kg intraperitoneal injections daily for 8 days; host or cells: mice in vivo (brain neurons under hypoxia)

Structure (SMILES)	nerve cell death (protein phosphatase)	anoxic coma onset sensitivity (time to failure) vs sham control [1]	PKG enzyme activity levels in heads compared to sham control (PKG)	neurotrophin (NT-3) activity (NT-3)	neuron apoptosis during hypoxia [2]
C=C1[C@@H](O)[C@@H]2O[C@]3(CC[C@H](/C=C/[C@@H](C)[C@@H]4CC(C)=C[C@@]5(O[C@H](C[C@@](C)(O)C(=O)O)CC[C@H]5O)O4)O3)CC[C@H]2O[C@@H]1[C@@H](O)C[C@H](C)[C@H]1O[C@@]2(CCCCO2)CC[C@H]1C [Okadaic acid]	increase nerve cell death	–	–	–	–
COC(=O)[C@@]1(OC)C[C@H]2O[C@]1(C)n1c3ccccc3c3c4c(c5c6ccccc6n2c5c31)C(=O)N(C)C4 [KT5823]	–	significant resilience to anoxic coma	significant effects compared to that of the sham control	potentiation of NT-3	–
C[C@@]12C(=O)OC(=O)[C@]1(C)[C@H]1CC[C@@H]2O1 [Cantharidin]	–	significant resilience to anoxic coma	no significant effects on PKG enzyme activity levels	–	–
Nc1nc2c(nc(Br)n2[C@@H]2O[C@@H]3COP(=O)(O)O[C@H]3[C@H]2O)c(=O)[nH]1 [8-Bromo cGMP, 8-Bromo-cGMP]	–	significant sensitivity to anoxic coma	significant effects compared to that of the sham control	–	–
CCCc1nn(C)c2c(=O)[nH]c(-c3cc(S(=O)(=O)N4CCN(C)CC4)ccc3OCC)nc12 [Sildenafil, sildenafil]	–	–	–	–	reduces neuron apoptosis
COC(=O)c1c(-c2cc(OC)c(OC)c(OC)c2)c2ccnc(OCc3ncccn3)c2c(=O)n1Cc1ccnc(C)c1 [T-0156]	–	significant sensitivity to anoxic coma	significant effects compared to that of the sham control	–	–
